This is an account of results in PMC3298469, “A selective and potent CXCR3 antagonist SCH 546738 attenuates the development of autoimmune diseases and delays graft rejection” (BMC Immunology, 2012).

One test deals with CCR7 (Homo sapiens, UniProt P32248). Description: human activated T cell chemotaxis induced by CCL19. The format is cell-based. Also noted: endogenous in cells. As to conditions: 1, 10 or 100 nM compound. As for the experimental part:
The preparation of human activated T cells was performed as described previously. Human peripheral blood lymphocytes were prepared by Ficoll-Hypaque centrifugation, depleted of monocytes, and stimulated for 2 days with 1 µg/ml PHA (Murex Diagnostics, Dartford, U.K.) and 100 U/ml IL-2 (Sigma, St. Louis, MO) in RPMI 1640 supplemented with 10% fetal bovine serum (FBS), 2 mM L-glutamine, 100 µg/ml streptomycin, 100 U/ml penecillin, 1% non-essential amino acids and 2 mM HEPES. Following stimulation, peripheral blood lymphocytes were cultured in above media containing 5% conditioned media (Sigma) for up to 15 days.
Human activated T cell chemotaxis assays were performed using 96-well ChemoTx® microplates (Neuro Probe, Inc., Gaithersburg, MD) with a 3 µm filter as per manufacturers' instructions. Activated T cells were washed with RPMI medium twice, and then resuspended in the medium containing 20% FBS. 1.25 × 10^5 cells/reaction were mixed with indicated concentrations of the compound and placed on the filter. The compound and chemokines were mixed and placed in the bottom well of the ChemoTx system. […] The number of migrated cells was measured using the Cell Titer Glo Luminescent Assay from Promega (Madison, WI) as per vendor's instructions. Chemotaxis is expressed as a chemotactic index, which is a ratio versus the one without chemokines (spontaneous migration). […]

Another test concerns the target T1, CXCR3 (Homo sapiens, UniProt P49682).
T1 sequence (P49682 1-368): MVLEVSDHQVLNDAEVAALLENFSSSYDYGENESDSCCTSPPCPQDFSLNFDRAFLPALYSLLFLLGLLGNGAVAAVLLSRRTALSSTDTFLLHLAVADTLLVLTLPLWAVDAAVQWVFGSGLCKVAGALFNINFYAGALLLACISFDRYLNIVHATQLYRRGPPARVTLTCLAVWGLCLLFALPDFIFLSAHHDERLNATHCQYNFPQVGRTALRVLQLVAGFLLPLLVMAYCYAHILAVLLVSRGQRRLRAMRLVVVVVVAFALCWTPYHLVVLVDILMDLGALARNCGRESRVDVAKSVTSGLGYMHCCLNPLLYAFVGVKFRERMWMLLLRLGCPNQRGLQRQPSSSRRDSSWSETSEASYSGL
Briefly: [125I]hCXCL10 competition binding (SPA, Ba/F3 membranes). Also noted: expressed in transfected cells; host or cells: mouse pro-B Ba/F3 cells (vector pME18Sneo), membrane preparation. As for the experimental part:
The cDNAs encoding human, mouse and rat CXCR3 were generated based on the published sequences: human (NM_001504), mouse (NM_009910), rat (NM_053415). The cDNAs for monkey and dog CXCR3 were cloned in the lab. All CXCR3 cDNAs were cloned into the mammalian expression vector pME18Sneo, a derivative of the SRα expression vector as described previously. IL-3-dependent mouse pro-B cells Ba/F3 were transfected to express CXCR3 of different species and cell membranes were prepared as described previously.
A scintillation proximity assay was used for radioligand competition binding assays as described previously with some modifications. For each assay point, 1 µg of membrane was preincubated for 1 hr with 300 µg wheat germ agglutinin (WGA) coated SPA beads (GE Healthcare Life Sciences) in the binding buffer (50 mM HEPES, 1 mM CaCl2, 5 mM MgCl2, 125 mM NaCl, 0.002% NaN3, 1.0% BSA) at room temperature. The beads were spun down, resuspended in the binding buffer and transferred to a 96-well Isoplate (Wallac, Gaithersburg, MD). The indicated concentrations of ^125I-hCXCL10, ^125I-hCXCL11 or ^35S-SCH 535390 with a series of titrations of SCH 546738 were added to start the reaction. After indicated reaction times at room temperature, the amount of radioactivity bound to the SPA beads was determined with a Wallac 1450 Microbeta counter (Wallac).
The ability of SCH 546738 to compete the binding of [^125I]hCXCL10 and [^125I]hCXCL11 to human CXCR3 receptor was determined using various concentrations of [^125I]hCXCL10 and [^125I]hCXCL11 as described in Methods. After 3 hr reaction, specific counts relative to input counts (B/B0) in the presence of increasing concentrations of SCH 546738 are plotted.

Read-outs that look alike come from different tables or passages of the source.

Chain of CCR7 (P32248 25-378): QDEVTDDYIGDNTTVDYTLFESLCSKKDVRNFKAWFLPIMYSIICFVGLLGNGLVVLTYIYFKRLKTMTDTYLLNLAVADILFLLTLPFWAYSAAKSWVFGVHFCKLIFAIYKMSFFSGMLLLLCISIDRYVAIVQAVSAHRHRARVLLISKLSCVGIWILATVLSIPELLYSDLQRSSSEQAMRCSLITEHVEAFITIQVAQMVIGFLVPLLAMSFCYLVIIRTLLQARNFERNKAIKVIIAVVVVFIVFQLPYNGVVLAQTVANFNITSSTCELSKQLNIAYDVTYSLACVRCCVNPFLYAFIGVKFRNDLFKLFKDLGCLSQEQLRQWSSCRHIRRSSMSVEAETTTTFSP

In the case of `CC[C@H]1CN(c2nc(N)c(C(N)=O)nc2Cl)CCN1C1CCN(Cc2ccc(Cl)cc2)CC1` [SCH 546738], the “effect on T cell chemotaxis induced by the CCR7 ligand CCL19” value on CCR7 is given as “did not affect”. In addition, the IC50 at CXCR3 (Human CXCR3, [125I]hCXCL10, read-out: IC50 (nM) (CXCL10)) was 0.8 nM; at CXCR3 ([125I-hIP-10] 100 pM, 3 hr reaction, read-out: IC50), 1 nM; at CXCR3 ([125I-hIP-10] 500 pM, 3 hr reaction, read-out: IC50), 1.2 nM; on CXCR3 ([125I]hCXCL10 25-500 pM, read-out: IC50 (constant, independent of input concentration)), around 1 nM; at CXCR3 (range over both radioligands CXCL10 and CXCL11, read-out: IC50 for displacing radiolabeled CXCL10 and CXCL11 from human CXCR3), 0.8 to 2.2 nM. Also, on CXCR3 (both CXCL10 and CXCL11), the “mode of antagonism of CXCL10 and CXCL11 binding to CXCR3” value is on record as “non-competitive antagonist”.
